Test results: patent US6063814A, “Phorbol esters as anti-neoplastic and white blood cell elevating agents” (priority 1997, dated 2000)
Values joined by “and” are separate entries in the source; they are usually repeats but may differ in a detail not shown here. Identical values can stand only once. “Also recorded” adds a separate entry of the source.

System: White Blood Cell (WBC)
Assay: TPA induced white blood cell changes in patients with solid tumors undergoing chemotherapy
Assay type: in vivo, humans
Experimental: TPA solution in a sterile syringe was injected into 200 ml of saline and mixed well for i.v. infusion.
Patients undergoing chemotherapy for the treatment of solid tumors.
Subject No. (11), person. Diagnosis: malignant lymphoma. The patient had received adramycin, vincristine, and hormonal treatment. The blood cell counts were decreased to: Hb: 78 g/L, WBC: 0.7×10^9 /L, platelet: 245×10^9 /L. 0.25 mg TPA was administered to the patient 4 times. The blood cell counts improved to: Hb: 76 g/L, WBC: 6.8×10^9 /L, platelet: 331×10^9 /L. Chemotherapy was then continued for 5 more days, and followed by one dose of 0.5 mg TPA. The WBC count was maintained at 3.0×10^9 /L. The patient is still receiving treatment.
Subject No. (12), person. Diagnosis: brain tumor. Blood profile after chemotherapy was: Hb: 119 g/L, WBC: 3.0×10^9 /L, platelet: 399×10^9 /L. 0.25 mg TPA was given to the patient once. On the day after the TPA treatment, the blood profile was Hb: 123 g/L, WBC: 4.5×10^9 /L, platelet: 436×10^9 /L. The patient received further chemotherapy.
Subject No. (13), person. Diagnosis: lung cancer. After chemotherapy, their blood cell counts were decreased to: Hb: 76 g/L, WBC: 0.9×10^9 /L, platelet: 100×10^9 /L. 0.25 mg TPA was given to the patient twice. On the day after the TPA treatment, Hb: 74 g/L, WBC: 2.5×10^9 /L, platelet: 110×10^9 /L. The patient is still receiving treatment.
Subject No. (14), person. Diagnosis: breast cancer. The WBC after chemotherapy was 3.8×10^9 /L. 0.25 mg of TPA was given to the patient once. The WBC on the day after the TPA treatment was 8.0×10^9 /L.
Subject No. (15), person. Diagnosis: Esophageal Cancer. Surgery was performed, followed by chemotherapy using cisplatin, 5-fluorouracil. Blood profile (before TPA): WBC: 2.4×10^9 /L; neutrophil: 83%, lymphocyte: 17%; platelet: 150×10^9 /L; RBC: 3.43×10^12 /L; Hb: 107 g/L. TPA dosage: 0.25 mg. […] The cardiac, hepatic, renal and pulmonary functions were normal.
Subject No. (16), person. Diagnosis: Esophageal Cancer. Surgery was performed, followed by chemotherapy using VP16, MTX, MMC and cisplatin. TPA dose: 0.25 mg. Blood profile (before TPA): WBC: 2.4×10^9 /L; neutrophil: 67%; lymphocyte: 23%; platelet: 101×10^9 /L; RBC: 3.45×10^12 /L; Hb: 114 g/L. Blood profile (one day after TPA): WBC: 5.2×10^9 /L; neutrophil: 87%; lymphocyte: 13%; platelet 60×10^9 /L; RBC: 3.76×10^12 /L; Hb: 122 g/L. Blood profile (2 days after TPA administration).
Subject No. (17), person. Diagnosis: breast cancer. Surgery was performed, followed by chemotherapy using CTX, MTX, and 5-FU. TPA dose: 0.25 mg×2 (Second dose was 4 days after 1st dose). […] The cardiac, hepatic, renal and pulmonary functions were normal.
Subject No. (18), person. Diagnosis: Colon cancer. Surgery was performed, followed by chemotherapy using Cisplatin, VP16, and 5-FU. TPA dose: 0.25 mg×2 (2nd TPA dose was administered 24 hrs after 1st TPA dose). […] Cardiac hepatic, renal and pulmonary functions were normal.
Subject No. (19), person. Diagnosis: lung cancer metastasized to adrenal gland. Surgery was performed, followed by chemotherapy using MMC, VCR, and CTX. TPA dosage: 0.25 mg×2 (2nd TPA dose was administered 24 hrs after 1st TPA dose). […] Cardiac, hepatic renal and pulmonary functions were normal.
Subject No. (20), person. Diagnosis: esophageal cancer metastasized to liver, lung and brain. The patient received chemotherapy using Taxol, cisplatin, 5-FU and Semustial. Total TPA dosage: 2mg. Blood profile (before TPA): WBC: 0.7×10^9 /L; neutrophil: 29%; lymphocyte: 71%; platelet: N/A; RBC: 2.82×10^12 /L; Hb: 87 g/L. TPA treatment schedule. On the first and third day, 0.25 mg was given and on the 5th, 7th and 9th day 0.5 mg of TPA was given. […] Cardiac, hepatic, renal and pulmonary functions were normal.
Subject No. (21), person. Diagnosis: lymphoma metastasized to bone marrow. […]

[1] = 2 days after second TPA dose (0.25 mg×2)
[2] = 2 days after single TPA 0.25 mg
[3] = 4 days after single TPA 0.25 mg
[4] = 7 days after single TPA 0.25 mg
[5] = one day after second TPA dose (0.25 mg×2)
[6] = one day after single TPA 0.25 mg
[7] = solid tumor patients after TPA 0.25 mg doses
[8] = subject 11, malignant lymphoma, after 0.25 mg TPA 4 times
[9] = subject 17, 3 days after first TPA dose 0.25 mg
[10] = subject 17, 4 days after second TPA dose 0.25 mg
[11] = subject 20, 11th day, TPA total 2 mg over 9 days
[12] = subject 20, day 2, TPA total 2 mg over 9 days
[13] = subject 20, day 4, TPA total 2 mg over 9 days
[14] = subject 20, day 6, TPA total 2 mg over 9 days
[15] = subject 20, day 8, TPA total 2 mg over 9 days
[16] = subject 20, day 13, TPA total 2 mg over 9 days
[17] = subject 21, day 2, TPA total 2.5 mg, days 1-8
[18] = subject 21, day 4, TPA total 2.5 mg, days 1-8
[19] = subject 21, day 7, TPA total 2.5 mg, days 1-8
[20] = subject 21, day 9, TPA total 2.5 mg, days 1-8

CCCCCCCCCCCCCC(=O)O[C@@H]1[C@@H](C)[C@@]2(O)[C@@H](C=C(CO)C[C@]3(O)C(=O)C(C)=C[C@@H]23)[C@@H]2C(C)(C)[C@]12OC(C)=O [TPA, Phorbol 12-Myristate-13-Acetate]
Hb [1]: 101 g/L
WBC [1]: 3.8e+09 L⁻¹ and 5e+09 L⁻¹
lymphocyte [1]: 16% and 20%
neutrophil [1]: 84% and 80%
platelet [1]: 8.4e+10 L⁻¹
Hb [2]: 109 g/L and 116 g/L
RBC [2]: 2.99e+12 L⁻¹
WBC [2]: 4.5e+09 L⁻¹ and 5.6e+09 L⁻¹
lymphocyte [2]: 20% and 19%
neutrophil [2]: 80% and 81%
platelet [2]: 6.4e+10 L⁻¹
Hb [3]: 112 g/L and 129 g/L
RBC [3]: 3.36e+12 L⁻¹
WBC [3]: 4.4e+09 L⁻¹ and 3.9e+09 L⁻¹
platelet [3]: 1.05e+11 L⁻¹
Hb [4]: 118 g/L and 138 g/L
neutrophil [4]: 82% and 48%
recovery of infection fighting cells (after and during chemotherapy): help speed the rapid recovery of the infection fighting cells
Hb [5]: 74 g/L and 112 g/L and 93 g/L
RBC [5]: 4.1 ×10^12
neutrophil [5]: 60% and 82%
platelet [5]: 1.1e+11 L⁻¹ and 1.98e+11 L⁻¹
Hb [6]: 123 g/L and 109 g/L and 122 g/L and 116 g/L and 139 g/L and 126 g/L and 120 g/L
RBC [6]: 3.33e+12 L⁻¹ and 3.76e+12 L⁻¹
neutrophil [6]: 94% and 87% and 79% and 53% and 60% and 90% and 83%
time of elevation of white blood cell count (patients receiving chemotherapy, often): within one day
duration of fever [7]: 4 h
fever, temperature after TPA [7]: 38 °C and 39.2 °C and 37.8 °C and 39 °C
cardiac, hepatic, renal and pulmonary functions (solid tumor patients after TPA, one subject per block): normal; also recorded: same as before TPA treatment; also recorded: functioning normally
Symptoms after TPA (solid tumor patients undergoing chemotherapy, one subject per block): Chill, fever, local irritation and slight headache; also recorded: chills, fever, local irritation; also recorded: Chills at 5th day which lasted about one hour; also recorded: No chills and fever, only local irritation; also recorded: No chills. Low fever; also recorded: Stomach ache and diarrhea (which disappeared soon after)
WBC count maintained (subject 11, after 5 more days chemotherapy and one dose 0.5 mg TPA): 3e+09 L⁻¹
Hb [8]: 76 g/L
WBC [8]: 6.8e+09 L⁻¹
platelet [8]: 3.31e+11 L⁻¹
Hb [9]: 107 g/L
RBC [9]: 3.36e+12 L⁻¹
WBC [9]: 2.9e+09 L⁻¹
lymphocyte [9]: 17%
neutrophil [9]: 83%
platelet [9]: 1.22e+11 L⁻¹
Hb [10]: 112 g/L
RBC [10]: 3.49e+12 L⁻¹
WBC [10]: 4.4e+09 L⁻¹
lymphocyte [10]: 14%
neutrophil [10]: 86%
platelet [10]: 1.93e+11 L⁻¹
duration of chills (subject 17, TPA 0.25 mg×2): 2 h
Hb [11]: 61 g/L
RBC [11]: 2.91e+12 L⁻¹
WBC [11]: 2.7e+09 L⁻¹
lymphocyte [11]: 15%
neutrophil [11]: 85%
platelet [11]: 3.76e+10 L⁻¹
Hb [12]: 72 g/L
RBC [12]: 2.17e+12 L⁻¹
WBC [12]: 9e+08 L⁻¹
lymphocyte [12]: 34%
neutrophil [12]: 66%
platelet [12]: 8.2e+10 L⁻¹
Hb [13]: 58 g/L
RBC [13]: 2.09e+12 L⁻¹
WBC [13]: 1.1e+09 L⁻¹
lymphocyte [13]: 9%
neutrophil [13]: 91%
platelet [13]: 3.9e+10 L⁻¹
Hb [14]: 70 g/L
RBC [14]: 1.9 ×10^12
WBC [14]: 1.9e+09 L⁻¹
lymphocyte [14]: 5%
neutrophil [14]: 95%
platelet [14]: 4.3e+10 L⁻¹
Hb [15]: 61 g/L
RBC [15]: 1.71e+12 L⁻¹
WBC [15]: 2.3e+09 L⁻¹
lymphocyte [15]: 9%
neutrophil [15]: 91%
platelet [15]: 9e+10 L⁻¹
Hb [16]: 57 g/L
RBC [16]: 1.73e+12 L⁻¹
WBC [16]: 1.9e+09 L⁻¹
lymphocyte [16]: 10%
neutrophil [16]: 90%
platelet [16]: 3.2e+10 L⁻¹
Hb [17]: 117 g/L
RBC [17]: 4.15e+12 L⁻¹
WBC [17]: 6e+08 L⁻¹
platelet [17]: 6.9e+10 L⁻¹
Hb [18]: 109 g/L
RBC [18]: 3.95e+12 L⁻¹
WBC [18]: 6e+08 L⁻¹
lymphocyte [18]: 72%
neutrophil [18]: 28%
platelet [18]: 6.8e+10 L⁻¹
Hb [19]: 110 g/L
RBC [19]: 4.22e+12 L⁻¹
WBC [19]: 8e+08 L⁻¹
lymphocyte [19]: 12%
neutrophil [19]: 88%
platelet [19]: 6e+10 L⁻¹
Hb [20]: 112 g/L
RBC [20]: 4.02e+12 L⁻¹
WBC [20]: 1.5e+09 L⁻¹
lymphocyte [20]: 2%
neutrophil [20]: 80%
platelet [20]: 6.9e+10 L⁻¹
resolution of injection site symptoms (subject 25, TPA 0.25 mg): disappeared the second day after they appeared
injection site reaction (subject 25, TPA 0.25 mg, probably caused by infusion needle): red, swollen in appearance and painful
duration of raised temperature (subject 26, TPA 0.25 mg): 3 h
Hb (three days after TPA 0.25 mg): 123 g/L
WBC (three days after TPA 0.25 mg): 2.9e+09 L⁻¹
lymphocyte (three days after TPA 0.25 mg): 27%
neutrophil (three days after TPA 0.25 mg): 73%
